This is an account of results in patent US8546416B2, “3-spirocyclic piperidine derivatives as ghrelin receptor agonists” (Novartis AG, priority 2011, dated 2013).

The target in test [1] is T1, human recombinant ghrelin receptor (GHS-R1a) (Homo sapiens, UniProt Q92847).
T1 construct: host or cells: CHO-K1
Description: hGHS-R1a Ca assay (Fluo-4 calcium assay in CHO-K1 cells). Particulars: for EC50: CHO-K1 cells expressing human GHS-R1a, agonist dose response up to 30 μM. Type of test: cell-based. As for the experimental part:
(§1) Chinese hamster ovary (CHO-K1) cells expressing human recombinant ghrelin receptor (GHS-R1a) were purchased from Euroscreen (ES-410-C) and propagated in UltraCHO medium containing glutamine and supplemented with 1% heat inactivated foetal calf serum (FCS), 100 U/ml penicillin, 100 mg/l streptomycin and 0.8 g/l geneticin. Cells were sub-cultured twice a week with a 1:10 dilution. For passaging, cells were washed with 1×DPBS without calcium and magnesium, trypsinised for 10 min with 0.05% Trypsin/EDTA and resuspended in cell culture medium.
Cells were diluted to achieve 1×10^6 cells/ml, seeded in 384-well black clear bottom CellBind plates at 25000 cells/well (25 ul) and incubated overnight at 37° C./5% CO2 Cells were expected to be 85-90% confluent on the day of assay (checked under the microscope) to ensure a high quality assay. Media was manually removed and 40 μl of loading solution containing probenecid and Fluo-4 no wash dye (a calcium indicator, Invitrogen F36206) were added to each well. After 30 min at 37° C. followed by another 30 min at RT, cpds were added to the wells. To generate a dose response up to 30 μM, 10 mM compound stocks in 100% (v/v) DMSO were firstly diluted in 50% (v/v) DMSO. Then, serial dilutions aimed at a full logarithmic dose responses (8 point) were performed in assay buffer [1×HBSS, 20 mM Hepes, 0.1% (w/v) BSA] to give 2.5% (v/v) DMSO and 5× final compound concentrations. The final assay DMSO concentration was 0.5% (v/v). After loading the cells with Fluo-4 containing solution, plates were read on a CellLux instrument (Perkin Elmer). A protocol set up to add 10 μl of 5× compound and to read the plate for 60 sec after adding the compound at 17th sec was used. Fluorescence excitation took place at 494 nm and emission at 516 nm. EC50 values of agonists were calculated by fitting the percent stimulation over background [(Max−Min)/Min] using the nonlinear logistic function of the Prism 5 software (GraphPad, USA).

Test [2] has as its target T1, human recombinant ghrelin receptor (GHS-R1a). Put plainly: hGHS-R1a cAMP assay (HTRF cAMP dynamic 2 kit, CHO-hGHS-R1a cells). It counts as cell-based. Particulars: 60 min incubation, dose response up to 30 μM. On the procedure: as §1
The Homogeneous Time-Resolved Fluorescence (HTRF) cAMP dynamic 2 kit (Cisbio International, France) was used as follows. CHO-hGHS-R1a or CHO-rGHS-R1a cells were seeded in a volume of 25 μl culture media at 10,000 cells/well (400,000 cells/ml) in Greiner white 384-well high volume plates and incubated overnight (18-24 h) at 37° C./5% CO2. Then, media was removed and 6 μl assay buffer [HBSS, 10 mM Hepes, 0.2% (w/v) BSA, 1.7 mM IBMX, (pH7.4)] were added to the wells. To generate a dose response up to 30 μM, 10 mM compound stocks in 100% (v/v) DMSO were firstly diluted in 50% (v/v) DMSO followed by a further dilution into assay buffer. Then, 4 μl of 2.5× compound (dose response as 9 point log serial dilution in assay buffer from 30 μM as maximum concentration) were added to each well achieving a final DMSO assay concentration of 0.8% (v/v). 0.1 μM forskolin was added as positive control. After 30 min (rGHS-R1a cell line) or 60 min (hGHS-R1a cell line) incubation at 37° C./5% CO2, 5 μl of cAMP-d2 and 5 μl of anti-cAMP antibody-cryptate, (both made in lysis buffer), were added to the plate followed by 1 h incubation at RT. During this time, cAMP produced by the cells competed with cAMP-d2 for the anti-cAMP antibody-cryptate molecule. Then, the plate was read on the Pherastar instrument (BMG, Germany) at two different emission wavelengths (620 and 650 nm). Increasing levels of endogenous cAMP produced by cells could be followed by a decrease of FRET fluorescent signal and viceversa. Values represented by a change in arbitrary fluorescence ratios (665/620) were converted into cAMP concentrations by using a standard curve, the reagents for which were supplied with the kit. EC50 values of agonists were calculated using the nonlinear logistic function of the Prism 5 software (GraphPad, USA). Emax were expressed as relative values of the ghrelin response, which was defined as 100%.
Background: cAMP levels reflect the balance of adenylyl cyclase and phosphodiesterase activity.

T1 sequence (Q92847 whole entry): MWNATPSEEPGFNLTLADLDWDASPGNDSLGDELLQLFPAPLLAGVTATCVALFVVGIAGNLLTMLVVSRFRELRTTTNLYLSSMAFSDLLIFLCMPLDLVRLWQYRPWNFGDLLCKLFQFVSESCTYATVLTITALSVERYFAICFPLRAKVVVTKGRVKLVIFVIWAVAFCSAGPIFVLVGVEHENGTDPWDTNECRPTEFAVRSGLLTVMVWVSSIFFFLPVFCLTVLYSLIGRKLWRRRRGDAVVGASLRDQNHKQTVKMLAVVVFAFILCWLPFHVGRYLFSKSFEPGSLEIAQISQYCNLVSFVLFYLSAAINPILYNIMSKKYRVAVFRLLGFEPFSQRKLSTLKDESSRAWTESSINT

Usually EC50 stands for the concentration giving half of the maximal effect. Turning to `CN1N=C(c2ccccc2)C2(CCCN(C(=O)[C@@H](COCc3ccccc3)NC(=O)C(C)(C)N)C2)C1=O` (mixture of isomers) [Example 1.47, 2-Amino-N-[(R)-1-benzyloxymethyl-2-(3-methyl-4-oxo-1-phenyl-2,3,7-triaza-spiro[4.5]dec-1-en-7-yl)-2-oxo-ethyl]-2-methyl-propionamide], the EC50 was determined as 0.0017 µM in test [1] and 0.385 µM in test [2].

In the case of `CN1C[C@H](c2ccccc2)[C@]2(CCCN(C(=O)[C@@H](COCc3ccccc3)NC(=O)C(C)(C)N)C2)C1=O` (single isomer, unassigned) [Example 1.0(i)], the EC50 in test [1] was 0.0023 µM; in test [2], 1.34 µM.

As to `CN1C[C@@H](c2ccccc2)[C@@]2(CCCN(C(=O)[C@@H](COCc3ccccc3)NC(=O)C(C)(C)N)C2)C1=O` (single isomer, unassigned) [Example 1.0(ii)], the EC50 in test [1] was found to be 0.00016 µM; in test [2], 0.043 µM.

`CC(C)(N)C(=O)N[C@H](COCc1ccccc1)C(=O)N1CCCC2(C1)C(=O)NCC2c1ccccc1` (single isomer, unassigned) [Example 1.4]: the EC50 in test [1] is 0.0002 µM; in test [2], 0.051 µM.

Regarding `CC(C)N1CC(c2ccccc2)C2(CCCN(C(=O)[C@@H](COCc3ccccc3)NC(=O)C(C)(C)N)C2)C1=O` (single isomer, unassigned) [Example 1.5], the EC50 in test [1] turned out to be 0.0001 µM; in test [2], 0.02 µM.

On to `CN1CC(c2ccc(Cl)cc2)C2(CCCN(C(=O)[C@@H](COCc3ccccc3)NC(=O)C(C)(C)N)C2)C1=O` (single isomer, unassigned) [Example 1.8], for which the figures for the EC50 in test [1] and in test [2] were 0.0003 µM and 0.162 µM, respectively.

In the case of `CN1CC(c2ccc(F)cc2)C2(CCCN(C(=O)[C@@H](Cc3c[nH]c4ccccc34)NC(=O)C(C)(C)N)C2)C1=O` (single isomer, unassigned) [Example 1.11], the EC50 in test [1] was found to be 0.0003 µM; in test [2], 0.023 µM.

Consider `CC(C)N1CC(c2ccc(F)cc2)C2(CCCN(C(=O)[C@@H](Cc3cn(C)c4ccccc34)NC(=O)C(C)(C)N)C2)C1=O` (single isomer, unassigned) [Example 1.15], for which the EC50 in test [1] was found to be 0.0016 µM; in test [2] it was 0.128 µM.

Consider `CN(C)C(=O)CN1CC(c2ccccc2)C2(CCCN(C(=O)[C@@H](COCc3ccccc3)NC(=O)C(C)(C)N)C2)C1=O` (single isomer, unassigned) [Example 1.16], for which the EC50 in test [1] turned out to be 0.0005 µM; in test [2], 0.039 µM.

Take `CNC(C)(C)C(=O)N[C@H](COCc1ccccc1)C(=O)N1CCCC2(C1)C(=O)N(C)CC2c1ccccc1` (single isomer, unassigned) [Example 1.17]: the EC50 in test [1] worked out at 0.001 µM; in test [2], 0.082 µM.

As for `CN1CC(c2ccccc2)C2(CCCN(C(=O)[C@@H](COCc3ccccc3)NC(=O)C(C)(C)N)C2)C1=O` (single isomer, unassigned) [Example 1.20], the EC50 in test [1] worked out at 0.0016 µM; in test [2], 2.28 µM.

Regarding `CN1CC(c2ccccc2)C2(CCCN(C(=O)[C@@H](COCc3ccccc3)NC(=O)C(C)(C)N)C2)C1=O` (single isomer, unassigned) [Example 1.21], the EC50 in test [1] was determined as 0.0021 µM; in test [2], 1.93 µM.

For the molecule `CCN1CC(c2ccccc2)C2(CCCN(C(=O)[C@@H](COCc3ccccc3)NC(=O)C(C)(C)N)C2)C1=O` (single isomer, unassigned) [Example 1.25], the EC50 in test [1] came out at 0.0003 µM; in test [2], 0.043 µM.

Turning to `CN1CC(c2ccccc2)C2(CCCN(C(=O)[C@@H](CCc3ccccc3)NC(=O)C(C)(C)N)C2)C1=O` (single isomer, unassigned) [Example 1.28], the EC50 was determined as 0.00065 µM in test [1] and 0.141 µM in test [2].

Take `Cc1ccc(COC[C@@H](NC(=O)C(C)(C)N)C(=O)N2CCCC3(C2)C(=O)N(C)CC3c2ccc(F)cc2)cc1` (single isomer, unassigned) [Example 1.29]: the EC50 in test [1] came out at 0.00035 µM; in test [2], 0.049 µM.

For `CN1CC(c2ccccc2)C2(CCCN(C(=O)[C@@H](CCCc3ccccc3)NC(=O)C(C)(C)N)C2)C1=O` (single isomer, unassigned) [Example 1.32], the EC50 in test [1] worked out at 0.0003 µM; in test [2] it was 0.011 µM.

On to `C[C@H](OCc1ccccc1)[C@@H](NC(=O)C(C)(C)N)C(=O)N1CCCC2(C1)C(=O)N(C)CC2c1ccccc1` (single isomer, unassigned) [Example 1.34], for which the results for the EC50 in test [1] and in test [2] were 0.0005 µM and 0.184 µM, respectively.

For the molecule `CC(C)(C)CN1CC(c2ccccc2)C2(CCCN(C(=O)[C@@H](COCc3ccccc3)NC(=O)C(C)(C)N)C2)C1=O` (single isomer, unassigned) [Example 1.40], the results for the EC50 in test [1] and in test [2] were 0.0007 µM and 0.034 µM, respectively.

The term Emax denotes the size of the effect at its maximum, as opposed to the concentration needed. Turning to `CC(C)(N)C(=O)N[C@H](COCc1ccccc1)C(=O)N1CCCC2(C1)C(=O)NCC2c1ccccc1` (single isomer, unassigned) [Example 1.49], the Emax in test [1] (CHO-K1, relative to Emax induced by MK-0677 (defined as 100%)) came to 93%. For the same molecule, the EC50 is 0.0006 µM in test [1] and 0.154 µM in test [2].

On to `Cc1ccccc1C1CN(C)C(=O)C12CCCN(C(=O)[C@@H](COCc1ccccc1)NC(=O)C(C)(C)N)C2` (single isomer, unassigned) [Example 1.51], for which the EC50 in test [1] is 0.0002 µM; in test [2], 0.067 µM.

As for `Cc1ccc(C2CN(C)C(=O)C23CCCN(C(=O)[C@@H](COCc2ccccc2)NC(=O)C(C)(C)N)C3)cc1` (single isomer, unassigned) [Example 1.53], the EC50 in test [1] amounted to 0.00011 µM; in test [2], 0.036 µM.

For `Cc1ccc(COC[C@@H](NC(=O)C(C)(C)N)C(=O)N2CCCC3(C2)C(=O)N(C)CC3c2ccccc2)cc1` (single isomer, unassigned) [Example 1.55], the EC50 was found to be 0.00013 µM in test [1] and 0.072 µM in test [2].

As for `CN1CC(c2ccc(F)cc2)C2(CCCN(C(=O)[C@@H](COCc3ccc(Cl)cc3)NC(=O)C(C)(C)N)C2)C1=O` (single isomer, unassigned) [Example 1.57], the 50% effective concentration (EC50) in test [1] was determined as 0.00022 µM; in test [2], 0.043 µM.

`CN1CC(c2ccccc2)C2(CCCN(C(=O)[C@@H](COCC3CCCCC3)NC(=O)C(C)(C)N)C2)C1=O` (single isomer, unassigned) [Example 1.60]: the concentration for a half-maximal effect (EC50) in test [1] came to 0.0003 µM; in test [2], 0.047 µM.

Take `CN1CN(c2ccccc2)C2(CCCN(C(=O)[C@@H](COCc3ccccc3)NC(=O)C(C)(C)N)C2)C1=O` (single isomer, unassigned) [Example 1.61]: the EC50 in test [1] came to 0.0029 µM; in test [2], 0.517 µM.

For `CN1C(=O)C2(CCCN(C(=O)[C@@H](COCc3ccccc3)NC(=O)C(C)(C)N)C2)C1c1ccccc1` (single isomer, unassigned) [Example 2.0(ii)], the EC50 amounted to 0.0011 µM in test [1] and 0.456 µM in test [2].
